Results as given in patent US9155741B2, “Methods of using a methylxanthine compound” (The Trustees of the University of Pennsylvania, priority 2008, dated 2015).

Columns and labels:
[1] = test system: cytochrome oxidase subunit I (CcOX-I); assay: Immunoblot of steady-state levels of cardiac cytochrome oxidase subunit I; type: in vivo, rat; settings: between all groups (SHAM/CLP, saline/caffeine), normalized to porin
Procedure: (§1) The care of the animals in this study was in accordance with NIH and Institutional Animal Care and Use Committee guidelines. Under isoflurane general anesthesia (up to 2%), 250 g male Sprague-Dawley rats (Charles River, Boston, Mass., USA) underwent cecal ligation and double puncture (CLP) with an 18-gauge needle or sham operation as previously described. All animals were administered 50 ml/kg saline subcutaneously immediately post procedure and every 24 hours. Once awake, animals were given access to food and water ad libitum.
(§2) Twenty four and 48 hours post-procedure, rats received either an intraperitoneal (i.p) injection of caffeine (7.5 mg/kg, Sigma-Aldrich, St. Louis, Mo.) or equal volume saline (1 mL). […] Four cohorts were evaluated: SHAM saline, SHAM caffeine, CLP saline, CLP caffeine. […]
(§3) Cardiac ventricles were harvested and homogenized in ice-cold H medium (70 mM sucrose, 220 mM mannitol, 2.5 mM Hepes, pH 7.4 and 2 mM EDTA). […] Pellets were again resuspended in H medium and mitochondrial protein concentration determined using the method of Lowry.
10 μg samples of mitochondrial protein were subjected to SDS-acrylamide gel electrophoresis and immunoblotting. […] The signal was detected with enhanced chemiluminescence (ECL; Amersham Pharmacia Biotech, Piscataway, N.J., USA), and density was measured using scanning densitometry. Five animals per group per experiment were evaluated.

[2] = test system: cecal ligation and puncture (CLP) sepsis model; assay: Survival to 96 hours following CLP or sham operation; type: in vivo, rat
Procedure: as §1
The survival was followed in a separate cohort of animals in this two treatment parallel-design study to 96 hours. Each animal was injected with either caffeine (7.5 mg/kg i.p.) or equal volume of saline (1 mL i.p.) every 24 hours beginning 24 hours following CLP or sham operation. Twenty animals per group were evaluated based on the probability being 80 percent that the study will detect a treatment difference at a two-sided 5.0 percent significance level, if the true hazard ratio is 3.
Data are presented as mean +/− standard deviation. Statistical significance was assessed using ANOVA and post hoc Tukey's test with p<0.05. Statistical significance in the survival study was assessed using Kaplan-Meier survival curves and Mantel-Cox log-rank test.

isolated rat heart = assay: Isolated rat heart preparation (left ventricular function, coronary perfusion, oxygen extraction and consumption) after CLP or sham operation; type: in vivo; settings: for heart rate: mean +/- SD
Procedure: as §1
Twenty four and 48 hours post-procedure, rats received either an intraperitoneal (i.p) injection of caffeine (7.5 mg/kg, Sigma-Aldrich, St. Louis, Mo.) or equal volume saline (1 mL). Rats were sacrificed one hour after the 48 hour injection following euthanasia with 150 mg/kg of intraperitoneal pentobarbital. Four cohorts were evaluated: SHAM saline, SHAM caffeine, CLP saline, CLP caffeine. N=5 per group. The 24-hour time point was chosen for initial intervention based on the onset of the hypodynamic phase when cardiac function begins to deteriorate and the presence of reversible CcOX inhibition. Studies were performed at the 48-hour time point because this time point represents the late phase of sepsis when cardiac function is markedly depressed and mortality is 75%.
Rats were anesthetized with intraperitoneal pentobarbital (70 mg/kg) and heparinized (1000 U IP). The heart was excised rapidly and the aorta was cannulated. Retrograde perfusion was initiated at constant flow (12 mL/g-min) with a modified Krebs-Henseleit buffer containing (mmol/L) NaCl 120, KCl 4.7, MgSO4 1.2, KH2PO4 1.2, CaCl2 1.25, NaHCO3 25, and glucose. The non-recirculating buffer was maintained at pH 7.4 equilibrated with 95% O2-5% CO2 at 37° C. Isovolumetric left ventricle pressure (LVP) was measured with a transducer connected to a saline-filled latex balloon inserted into the left ventricle through the left atrium. The balloon was inflated to maintain an end-diastolic pressure of 10 mmHg Hearts were immersed in a water-jacketed chamber maintained at 37° C. and allowed to stabilize for 30 minutes.
Heart rate, LVP, the maximum rate of positive and negative change in LVP (+/−dP/dt), and aortic pressure were collected with an analog-to-digital converter system (Power Laboratory 4SP, ADlnstruments, Castle Hill, Australia). […] Measurements were obtained at coronary flow rates (CF) of 12, 10, 8, 6, and 4 mL/g-min Coronary inflow oxygen tension (PaO2) and coronary sinus oxygen tension (PvO2) were measured (GEM Premier 3000, Instrumentation Laboratory, Belgium). Percent O2 extraction was calculated as 100×(PaO2-PvO2/PaO2). Myocardial O2 consumption (MO2) was calculated as CF/g×(PaO2-PvO2)×O2 solubility at 760 mmHg O2 solubility is 24 |il/ml H2O at 37° C. Coronary perfusion pressure was calculated as the difference between mean aortic pressure and LV end-diastolic pressure. Coronary resistance was calculated by dividing perfusion pressure by coronary flow.

[3] = target: T1, cytochrome oxidase (CcOX) (Rattus norvegicus, UniProt P05503); assay: Myocardial cytochrome oxidase steady-state kinetic activity in isolated cardiac mitochondria after CLP or sham operation; type: in vivo
T1 construct: from tissue; host or cells: mitochondria isolated from cardiac ventricles of Sprague-Dawley rats
Procedure: as §1, §2, §3
CcOX kinetics were assayed by the method of Smith in which the rate of oxidation of ferrocytochrome c was measured by following the decrease in absorbance at 550 nm. […] Specific activity was calculated from mean values of three to four measurements using 21.1 mM−cm^−1 as the extinction coefficient of ferrocytochrome c at 550 nm. […]

[4] = CLP caffeine, 12 mL/g-min coronary flow, compared to saline injected sham values (so in the source)
[5] = CLP caffeine, toward saline injected sham values, most flow rates
[6] = sham caffeine vs both CLP groups, all coronary flow rates
[7] = sham caffeine vs saline injected sham, highest flow rates

## Cn1c(=O)c2c(ncn2C)n(C)c1=O [caffeine]
[1]
  steady-state myocardial CcOX I levels: no significant difference
[2]; CLP, caffeine 7.5 mg/kg i.p. daily from 24 hours, 48 hours
  animals survived to 48 hours: Eighty
[2]; CLP, caffeine 7.5 mg/kg i.p. daily from 24 hours, 72 hours
  animals survived to 72 hours: 55%
[2]; CLP, caffeine 7.5 mg/kg i.p. daily from 24 hours, 96 hours
  animals survived to 96 hours: 40%
[2]; sham operation, caffeine 7.5 mg/kg i.p. daily, to 96 hours
  mortality: no mortality
Isolated rat heart; CLP caffeine vs CLP saline
  coronary resistance: significantly increased
Isolated rat heart; CLP caffeine vs CLP saline, 12 mL/g-min coronary flow
  coronary perfusion pressure: significantly increased
Isolated rat heart; CLP caffeine vs CLP saline, all flow rates greater than 4 mL/g-min
  left ventricular pressure (LVP): significantly improved
Isolated rat heart; CLP caffeine vs saline injected sham, flow rates except 12 mL/g-min
  left ventricular pressure (LVP): approached saline injected sham values
Isolated rat heart; CLP caffeine vs sham cohorts, 12 mL/g-min coronary flow
  left ventricular pressure (LVP): significantly lower than both sham cohorts
Isolated rat heart; CLP caffeine vs sham controls, almost all coronary flow rates
  coronary perfusion pressure: significant reductions
Isolated rat heart; [4]
  myocardial oxygen consumption: significantly increased
  myocardial oxygen extraction: significantly increased
Isolated rat heart; CLP caffeine
  heart rate: 262+/−11 bpm
Isolated rat heart; [5]
  +dP/dt: significantly improved
  −dP/dt: significantly improved
Isolated rat heart; sham caffeine vs all other groups, highest coronary flow rates
  left ventricular pressure (LVP): significantly increased
Isolated rat heart; sham caffeine vs both CLP cohorts, 12 mL/g-min coronary flow
  myocardial oxygen consumption: significantly increased
Isolated rat heart; [6]
  +dP/dt: significantly increased
  −dP/dt: significantly increased
Isolated rat heart; [7]
  +dP/dt: significantly increased
  −dP/dt: significantly increased
Isolated rat heart; sham caffeine vs sham saline
  coronary resistance: significantly decreased
Isolated rat heart; sham caffeine vs sham saline, highest flow rate
  coronary perfusion pressure: significantly reduced
Isolated rat heart; sham caffeine
  heart rate: 276+/−11 bpm
[3]; CLP rats, 48 hours, caffeine 7.5 mg/kg i.p. at 24 and 48 hours, vs sham
  myocardial CcOX kinetic activity normalized to citrate synthase activity: restored CcOX kinetic activity in CLP rats to sham values
[3]; sham animals, caffeine injected vs saline injected
  myocardial CcOX kinetic activity normalized to citrate synthase activity: no significant difference
